Data as given in the CheMixHub ionic liquid set.

Assay: xn = mol fraction of the nth substance listed

CCCCCC[n+]1ccn(C)c1.F[B-](F)(F)F + CC(C)O + CCCO
viscosity [mPa·s], 101 kPa
Settings	293.15 K	303.15 K	313.15 K
x2 = 0.0547, x3 = 0.092	153.8	92	–
x2 = 0.0978, x3 = 0.4041	31.47	21.38	15.28
x2 = 0.1003, x3 = 0.7991	4.92	3.33	2.35
x2 = 0.1006, x3 = 0.6013	13.2	9.16	6.69
x2 = 0.1012, x3 = 0.4996	20.14	13.93	10.1
x2 = 0.1014, x3 = 0.7009	8.3	5.74	4.16
x2 = 0.1116, x3 = 0.2875	49.62	32.6	22.59
x2 = 0.1293, x3 = 0.1504	85.1	53.44	–
x2 = 0.1973, x3 = 0.1121	75.21	48.39	32.33
x2 = 0.1985, x3 = 0.4006	20.51	14.2	10.17
x2 = 0.1992, x3 = 0.3012	32.59	21.43	15.29
x2 = 0.2003, x3 = 0.2005	49.41	32.39	22.5
x2 = 0.2003, x3 = 0.4992	13.3	9.31	6.79
x2 = 0.2012, x3 = 0.6984	5	3.35	2.37
x2 = 0.2977, x3 = 0.1042	50.06	32.73	22.7
x2 = 0.2999, x3 = 0.4989	8.8	6.05	4.35
x2 = 0.3037, x3 = 0.4006	13.28	9.19	6.68
x2 = 0.3046, x3 = 0.5961	5.05	3.39	2.36
x2 = 0.3058, x3 = 0.3005	20.27	13.93	10.1
x2 = 0.3977, x3 = 0.2999	13.8	9.55	6.92
x2 = 0.3985, x3 = 0.104	31.6	21.33	15.15
x2 = 0.3987, x3 = 0.3005	13.61	9.43	6.88
x2 = 0.3989, x3 = 0.3998	8.77	6.02	4.33
x2 = 0.3989, x3 = 0.5015	5.18	3.4	2.38
x2 = 0.4002, x3 = 0.1968	21.12	14.53	10.38
x2 = 0.4992, x3 = 0.4006	5.21	3.47	2.4
x2 = 0.5004, x3 = 0.0998	20.98	14.38	10.33
x2 = 0.5013, x3 = 0.3019	8.68	5.91	4.23
x2 = 0.5734, x3 = 0.2335	8.61	5.85	4.17
x2 = 0.6, x3 = 0.0992	13.73	9.47	6.84
x2 = 0.6001, x3 = 0.3004	5.39	3.43	2.38
x2 = 0.6942, x3 = 0.1049	8.82	5.98	4.27
x2 = 0.698, x3 = 0.2007	5.44	3.54	2.45
x2 = 0.7991, x3 = 0.101	5.41	3.47	2.37

CN1CCCN(C)C1=O + CCCCCCCCn1cc[n+](C)c1.[Cl-]
viscosity [mPa·s], 100 kPa
Settings	288.15 K	293.15 K	298.15 K	303.15 K	308.15 K	313.15 K	318.15 K	323.15 K	328.15 K	333.15 K
x2 = 0	4	3.51	3.11	2.78	2.5	2.266	2.064	1.891	1.737	1.595
x2 = 0.0999	15.3	12.48	9.9	8.46	7.27	6.32	5.53	4.88	4.35	3.9
x2 = 0.1998	52.2	40.6	31.8	25.6	21.04	17.5	14.79	12.66	10.9	9.46
x2 = 0.2997	176	128.8	95.4	78.6	61.1	48.4	39	31.9	26.4	21.86
x2 = 0.4004	412	287	224	163.5	122	93.5	72.9	57.5	46.8	38.3
x2 = 0.4993	1016	673	463	326	248	192	144.4	107.7	84.2	67.5
x2 = 0.5981	2302	1467	972	661	462	340	250	186	143.4	110.7
x2 = 0.6984	–	–	1797	1194	815	575	412	311	233	178
x2 = 0.7997	–	–	–	1924	1289	890	632	458	340	257

C[S+](C)C.O=S(=O)([N-]S(=O)(=O)C(F)(F)F)C(F)(F)F + N#CCCCC#N
101 kPa, x1 = 0.2085
Settings	viscosity [mPa·s]
278 K	21.84
303 K	9.44
318 K	6.433
328 K	5.159
333 K	4.664
338 K	4.238
348 K	3.558

CC[n+]1ccn(C)c1.O=C([O-])C(F)(F)F + O
101 kPa
Settings	electrical conductivity, 298.15 K [S/m]	electrical conductivity, 313.15 K [S/m]	viscosity, 293.15 K [mPa·s]	viscosity, 298.15 K [mPa·s]	viscosity, 303.15 K [mPa·s]	viscosity, 313.15 K [mPa·s]
x1 = 0.001	0.3	0.41	1.01	0.9	0.8	0.66
x1 = 0.003	0.79	1.1	1.05	0.93	0.84	0.69
x1 = 0.004	1.2	1.6	1.1	0.98	0.87	0.72
x1 = 0.006	1.6	2.2	1.16	1.03	0.92	0.75
x1 = 0.009	2	2.5	1.24	1.1	0.98	0.81
x1 = 0.014	2.6	3.7	1.4	1.25	1.12	0.92
x1 = 0.02	3.1	4.4	1.57	1.4	1.2	0.97
x1 = 0.033	4	5.6	2.01	1.75	1.54	1.21
x1 = 0.051	4.4	6.6	2.53	2.2	1.92	1.5
x1 = 0.065	4.6	6.9	3	2.58	2.24	1.74
x1 = 0.108	4.5	6.9	4.39	3.76	3.25	2.49
x1 = 0.159	4.2	6.3	6.17	5.28	4.55	3.46
x1 = 0.243	3.5	5.3	8.98	7.65	6.56	4.96
x1 = 0.406	2.5	3.7	–	–	–	–
x1 = 0.418	–	–	14.4	12.3	10.6	8
x1 = 0.502	2.2	3.4	17.3	14.8	12.6	9.5
x1 = 0.53	2	3.1	18.7	15.9	13.6	10.2
x1 = 0.759	1.5	2.3	26.8	22.7	19.3	14.3
x1 = 1	1	1.6	39.5	32.9	27.5	19.9

C[N+](C)(C)CCO.O=C([O-])c1cccnc1 + O
viscosity [mPa·s], 100 kPa
Settings	x1 = 0.0008779	x1 = 0.001474	x1 = 0.00202	x1 = 0.002696	x1 = 0.00365	x1 = 0.005797
293.15 K	1.041	1.065	1.087	1.115	1.153	1.238
298.15 K	0.928	0.949	0.968	0.992	1.025	1.097
303.15 K	0.833	0.852	0.869	0.889	0.918	0.98
308.15 K	0.752	0.769	0.784	0.802	0.827	0.88
313.15 K	0.685	0.7	0.713	0.729	0.75	0.796

CN1CCCN(C)C1=O + CCCCCC[n+]1ccn(C)c1.[Cl-]
viscosity [mPa·s], 100 kPa
Settings	288.15 K	293.15 K	298.15 K	303.15 K	308.15 K	313.15 K	318.15 K	323.15 K	328.15 K	333.15 K
x2 = 0	4	3.51	3.11	2.78	2.5	2.266	2.064	1.891	1.737	1.595
x2 = 0.1011	9.78	8.21	6.99	6.01	5.22	4.59	4.06	3.63	3.25	2.94
x2 = 0.1987	29.2	23.3	18.82	15.64	13.14	10.05	8.62	7.47	6.53	5.75
x2 = 0.3083	77.7	59.1	45.8	36.3	29.2	23.9	19.81	16.38	13.92	12.29
x2 = 0.3981	184	133.6	99.3	75.6	63.8	50.5	40.6	33	27.5	23.11
x2 = 0.4957	412	283	215	157.4	117.8	90.1	70.2	55.6	44.6	36.3
x2 = 0.6008	897	600	418	296	215	158	121	93.6	73.9	58.6
x2 = 0.6983	2019	1294	856	583	408	294	215	163.7	124.9	96.8
x2 = 0.7961	–	2416	1565	1044	708	496	357	261	196	148.4

CCCC[N+](C)(C)C.O=S(=O)([N-]S(=O)(=O)C(F)(F)F)C(F)(F)F + CCC(O)CO
101 kPa
Settings	viscosity [mPa·s]
323.15 K, x2 = 0.6289	15.53
328.15 K, x2 = 0	30
338.15 K, x2 = 0.2291	14.17
338.15 K, x2 = 0.3543	11.92
343.15 K, x2 = 0.2291	12.41
348.15 K, x2 = 0.6289	7.02
353.15 K, x2 = 0.5116	7.12
353.15 K, x2 = 0.8622	4.78

CCCCCC[n+]1ccn(C)c1.F[B-](F)(F)F + CCCC[n+]1ccn(C)c1.F[B-](F)(F)F
101 kPa
Settings	viscosity [mPa·s]
298.15 K, x2 = 0.103	195.1
298.15 K, x2 = 0.8917	115.3
299.15 K, x2 = 0.103	184.2
299.15 K, x2 = 0.809	115.7
301.15 K, x2 = 0.809	104.4
301.15 K, x2 = 0.8917	98.6
302.15 K, x2 = 0.3602	132.9
302.15 K, x2 = 0.555	115.9
302.15 K, x2 = 0.8917	93.9
303.15 K, x2 = 0.3602	126.2
303.15 K, x2 = 0.555	110
303.15 K, x2 = 0.809	94.5
303.15 K, x2 = 0.8917	89.3
304.15 K, x2 = 0.103	139.2
304.15 K, x2 = 0.5047	110
305.15 K, x2 = 0.3602	113.5
305.15 K, x2 = 0.4383	107.7
305.15 K, x2 = 0.598	98.5
305.15 K, x2 = 0.809	85.6
307.15 K, x2 = 0.054	123.9
308.15 K, x2 = 0.103	113
308.15 K, x2 = 0.3602	97.3
308.15 K, x2 = 0.4383	92.8

O=[N+]([O-])[O-].[Li+] + CC[n+]1ccn(C)c1.O=S(=O)([O-])C(F)(F)F
electrical conductivity [S/m], 101 kPa
Settings	x2 = 0.8748	x2 = 0.9165	x2 = 0.9576	x2 = 0.9746
288.15 K	0.38	0.454	0.563	0.562
298.15 K	0.587	0.68	0.818	0.816
333.15 K	1.69	1.85	2.07	2.1

CC(C)[C@H](N)C(=O)O + CCCCCCCCCCCCCC[n+]1ccccc1.O=C([O-])C(O)c1ccccc1 + O
Settings	electrical conductivity [S/m]
313.15 K, 101 kPa, x2 = 0, x1 = 0.001799	0.00161

CCCCCC[n+]1ccn(C)c1.F[B-](F)(F)F + CCCN
Settings	viscosity [mPa·s]
298.15 K, 101 kPa, x2 = 0	171.8

CC(C)C[C@H](N)C(=O)O + CCCCCCCCCCCC[N+](C)(C)Cc1ccccc1.[Cl-] + O
101 kPa, x1 = 0.00893, x2 = 0
Settings	electrical conductivity [S/m]
293.15 K	0.00107
298.15 K	0.00125
303.15 K	0.00136
308.15 K	0.00152
313.15 K	0.00168

CC(C)=O + CC(=O)[O-].CC[NH2+]CC
Settings	viscosity [mPa·s]
298.15 K, 101 kPa, x2 = 0	0.309
